Experimental findings from ChEMBL document CHEMBL2163296 (J Med Chem, 2012) are described below.

For assay [1], the target named is 5-hydroxytryptamine receptor 6 (Homo sapiens, UniProt P50406).
Assay [2] has as its target 5-hydroxytryptamine receptor 5A (Homo sapiens, UniProt P47898).
Assay [3] deals with T1, 5-hydroxytryptamine receptor 1F (Homo sapiens) (UniProt P30939).
T1 sequence (whole entry): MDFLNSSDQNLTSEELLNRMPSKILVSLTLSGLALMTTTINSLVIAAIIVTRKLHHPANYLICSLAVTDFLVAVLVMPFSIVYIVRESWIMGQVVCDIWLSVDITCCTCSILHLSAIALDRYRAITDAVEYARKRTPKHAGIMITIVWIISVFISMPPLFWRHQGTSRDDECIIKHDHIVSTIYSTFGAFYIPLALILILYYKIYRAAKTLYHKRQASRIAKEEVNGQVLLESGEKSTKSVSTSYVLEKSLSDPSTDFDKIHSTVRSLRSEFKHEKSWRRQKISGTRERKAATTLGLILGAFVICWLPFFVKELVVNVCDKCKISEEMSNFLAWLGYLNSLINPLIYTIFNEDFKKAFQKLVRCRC
The experiment in a line: Binding affinity to 5HT1F receptor after 1.5 hrs by scintillation counter.

Assay [4] addresses 5-hydroxytryptamine receptor 7 (Homo sapiens, UniProt P34969).
Assay [5] deals with T2, 5-hydroxytryptamine receptor 2C (Homo sapiens, UniProt P28335).
T2 sequence (P28335 whole entry): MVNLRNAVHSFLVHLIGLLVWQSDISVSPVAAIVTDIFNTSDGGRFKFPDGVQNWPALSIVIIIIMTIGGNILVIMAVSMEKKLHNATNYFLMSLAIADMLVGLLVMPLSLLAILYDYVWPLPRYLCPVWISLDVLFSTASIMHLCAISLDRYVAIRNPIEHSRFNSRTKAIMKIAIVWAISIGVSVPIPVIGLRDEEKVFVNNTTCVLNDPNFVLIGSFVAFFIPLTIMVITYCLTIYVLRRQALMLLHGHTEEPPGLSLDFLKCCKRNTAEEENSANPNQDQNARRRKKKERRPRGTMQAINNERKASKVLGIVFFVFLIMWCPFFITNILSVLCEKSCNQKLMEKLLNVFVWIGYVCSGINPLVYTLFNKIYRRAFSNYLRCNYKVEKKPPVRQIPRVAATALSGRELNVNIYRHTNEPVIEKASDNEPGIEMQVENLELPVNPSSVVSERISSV

Active and inactive are the calls of the source. No cut-off for these calls is given here.

Chain of 5-hydroxytryptamine receptor 7 (P34969 whole entry): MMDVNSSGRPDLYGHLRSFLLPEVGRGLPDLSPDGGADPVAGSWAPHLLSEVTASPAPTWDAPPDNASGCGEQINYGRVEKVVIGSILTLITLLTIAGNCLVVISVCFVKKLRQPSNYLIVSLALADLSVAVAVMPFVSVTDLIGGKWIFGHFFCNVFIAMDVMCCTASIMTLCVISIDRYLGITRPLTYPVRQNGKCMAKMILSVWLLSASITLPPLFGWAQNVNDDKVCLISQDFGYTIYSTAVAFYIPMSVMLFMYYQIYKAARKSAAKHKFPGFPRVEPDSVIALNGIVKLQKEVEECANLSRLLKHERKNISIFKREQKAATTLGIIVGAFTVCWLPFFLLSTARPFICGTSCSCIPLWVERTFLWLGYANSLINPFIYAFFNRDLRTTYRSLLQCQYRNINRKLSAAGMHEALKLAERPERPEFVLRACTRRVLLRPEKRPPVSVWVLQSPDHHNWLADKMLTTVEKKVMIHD
Chain of 5-hydroxytryptamine receptor 6 (P50406 whole entry): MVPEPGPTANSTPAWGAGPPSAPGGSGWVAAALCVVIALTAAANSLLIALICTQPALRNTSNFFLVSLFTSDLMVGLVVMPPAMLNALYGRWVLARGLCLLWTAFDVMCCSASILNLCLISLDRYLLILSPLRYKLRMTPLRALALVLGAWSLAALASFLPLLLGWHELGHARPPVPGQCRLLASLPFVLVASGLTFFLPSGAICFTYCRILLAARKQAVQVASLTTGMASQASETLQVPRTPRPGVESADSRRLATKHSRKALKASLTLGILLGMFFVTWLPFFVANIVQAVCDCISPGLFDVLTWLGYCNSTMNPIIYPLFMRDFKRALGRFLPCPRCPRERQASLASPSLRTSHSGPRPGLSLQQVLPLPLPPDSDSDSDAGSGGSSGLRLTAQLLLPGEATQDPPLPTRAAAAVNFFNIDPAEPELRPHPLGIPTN
Chain of 5-hydroxytryptamine receptor 5A (P47898 whole entry): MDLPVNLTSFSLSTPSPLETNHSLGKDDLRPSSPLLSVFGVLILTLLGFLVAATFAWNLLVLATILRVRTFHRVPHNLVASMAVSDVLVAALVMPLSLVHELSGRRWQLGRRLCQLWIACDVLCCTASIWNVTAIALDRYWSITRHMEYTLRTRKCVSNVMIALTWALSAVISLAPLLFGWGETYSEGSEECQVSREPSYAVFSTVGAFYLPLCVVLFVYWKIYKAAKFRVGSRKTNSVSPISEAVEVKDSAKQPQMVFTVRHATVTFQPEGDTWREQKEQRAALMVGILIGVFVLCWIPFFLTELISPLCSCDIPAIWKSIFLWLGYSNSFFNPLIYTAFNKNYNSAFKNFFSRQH

For `CNC(=O)c1cc(Oc2ccc(NC(=O)Nc3ccc(Cl)c(C(F)(F)F)c3)cc2)ccn1` [SORAFENIB], the inhibition constant (Ki) turned out to be 6.21 µM in assay [1], 3.3 µM in assay [2], 7.07 µM in assay [4] and 0.417 µM in assay [5]. Moreover, in assay [3], the result was inactive.

As usually defined, the Ki is a dissociation constant, usually derived from enzyme kinetics or from competition with a known ligand. A low value points to higher affinity.
